11 compounds from ChEMBL document CHEMBL1201862, “PubChem BioAssay data set” (2004) can be followed below.

Experiment in all cases: NCI anticancer screen, dose series, 48 h
Assay [1] deals with HT-29.
Assay [2] deals with SN12C.
Assay [3] relates to CCRF-CEM.
In assay [4] the test system is SF-295.
For assay [5], the system named is 786-0.
In assay [6] the test system is T47D.
Assay [7] concerns OVCAR-3.
Assay [8] deals with KM12.
For assay [9], the system named is TK-10.
Assay [10] deals with K562.
Assay [11] concerns U-251.
In assay [12] the test system is OVCAR-4.
Assay [13] relates to HOP-62.
Assay [14] has as its system BT-549.
Assay [15] deals with UO-31.
The subject of assay [16] is HOP-92.
In assay [17] the test system is COLO 205.
The test system of assay [18] is EKVX.
The test system of assay [19] is MDA-N.

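Compound exposure: 48 hours, 5 concentrations, 96-well plates. GI50 is the concentration that inhibits growth by half.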 The source made the active and inactive calls. No stated cut-off is given here; in the data, active = GI50 up to about 1.1 µM and inactive = higher. Where only a bound is given, the exact number is not on record here.

For `O=S(=O)(c1ccccc1)c1ccc(-c2nc(-c3ccc4c(c3)Sc3ccccc3S4)cs2)cc1`, the GI50 in [1] is > 100 µM (inactive); in assay [2], > 100 µM (inactive); in [3], 41.9 µM (inactive); in assay [4], 16.5 µM (inactive); in assay [5] it was 17.2 µM (inactive); in assay [6], 61.8 µM (inactive). The GI50 is > 100 µM (inactive) in assay [7]; > 100 µM (inactive) in assay [8]; 22.1 µM (inactive) in assay [9]; 69 µM (inactive) in [10]; 27.9 µM (inactive) in assay [11]; > 100 µM (inactive) in assay [12]. In addition, the GI50 is 15.9 µM (inactive) in [13]; 30.3 µM (inactive) in assay [14]; > 100 µM (inactive) in assay [15]; 20.7 µM (inactive) in [16]; > 100 µM (inactive) in [17]; 39.8 µM (inactive) in assay [18].
For `Cc1cc(N(CCC#N)CCC#N)ccc1C(/N=N/c1ccc([N+](=O)[O-])cc1)=N\NC(=O)c1cc(Cl)ccc1C(=O)c1ccccc1`, the GI50 in assay [1] is 10.4 µM (inactive); in assay [2] it was 19.3 µM (inactive); in assay [19], 18.9 µM (inactive); in assay [3], 2.98 µM (inactive); in assay [4], 14.5 µM (inactive); in assay [5] it was 7.64 µM (inactive). The GI50 in [6] was 5.18 µM (inactive); in assay [7], 4.86 µM (inactive); in assay [8], 9.1 µM (inactive); in assay [9], 16.9 µM (inactive); in [10], 9.84 µM (inactive); in [11] it was 13.3 µM (inactive). For the same compound, the GI50 in [12] was 9.2 µM (inactive); in [13], 18.4 µM (inactive); in [14], 19 µM (inactive); in assay [15] it was 10.1 µM (inactive); in assay [17], 16.2 µM (inactive); in assay [18], 6.11 µM (inactive).
With `N=C(/C=C/c1ccc(-c2cn3cc(/C=C/C(=N)N4CCOCC4)ccc3n2)cc1)N1CCOCC1`, the GI50 in assay [2], in assay [19], in [4], in [5], in assay [6] and in assay [7] was > 100 µM (inactive) each time. Moreover, the GI50 in assay [8], in assay [9], in assay [10], in [11], in assay [12] and in assay [13] was > 100 µM (inactive) in each case. The GI50 in [14], in assay [15], in assay [16], in assay [17] and in [18] was > 100 µM (inactive) each time.
For the compound `CC1=NN(c2nc(N)nc(CSc3cc(Cl)c(C)cc3S(N)(=O)=O)n2)C(C)(C)C1`, the GI50 in assay [1], in assay [2], in assay [19], in assay [3], in [4] and in assay [5] was > 10 µM (inactive) throughout. Also, the GI50 in [6], in assay [7], in [8], in assay [9], in assay [10] and in assay [11] was > 10 µM (inactive) throughout. Also, the GI50 in assay [12] was > 10 µM (inactive); in [13], > 10 µM (inactive); in [14], > 10 µM (inactive); in assay [15], 0.543 µM (active); in [17], > 10 µM (inactive); in [18] it was > 10 µM (inactive).
Regarding `COc1cc2c[n+](C)c3c4cc(OC)c(OC)cc4c(OCc4ccccc4)cc3c2cc1OC`, the GI50 in [1] is 2.28 µM (inactive); in assay [2] it was 0.265 µM (active); in assay [19] it was 0.982 µM (active); in [4] it was 4.89 µM (inactive); in assay [5], 0.634 µM (active); in assay [6] it was 0.0986 µM (active). For the same compound, the GI50 in [7] was 0.877 µM (active); in [8] it was 2.1 µM (inactive); in assay [9], > 31.6 µM (inactive); in assay [10] it was 1.83 µM (inactive); in [11], 0.0273 µM (active); in assay [12] it was 2.02 µM (inactive). In addition, the GI50 in assay [13] was 1.86 µM (inactive); in assay [14], 0.32 µM (active); in assay [15] it was > 100 µM (inactive); in assay [16] it was 0.966 µM (active); in assay [17] it was 0.263 µM (active); in assay [18], > 100 µM (inactive).
In the case of `CN(c1c(Cl)cccc1Cl)S(=O)(=O)c1ccccc1[N+](=O)[O-]`, the GI50 in assay [1], in assay [2], in assay [19], in assay [4], in [5] and in [6] was > 100 µM (inactive) throughout. The GI50 in assay [7], in assay [8], in assay [9], in assay [11], in [12] and in assay [13] was > 100 µM (inactive) throughout. The GI50 in assay [14], in [15], in assay [17] and in assay [18] was > 100 µM (inactive) in each case.
Take `COC(=O)c1ccccc1C#CCCCOS(C)(=O)=O`: the GI50 in assay [1], in [2], in assay [19], in assay [3], in assay [4] and in assay [5] was > 10 µM (inactive) throughout. For the same compound, the GI50 in assay [6], in assay [7], in assay [8], in assay [9], in assay [10] and in [11] was > 10 µM (inactive) in each case. In addition, the GI50 in [12], in assay [13], in assay [14], in [15], in assay [17] and in assay [18] was > 10 µM (inactive) in each case.
For the compound `COc1ccc(/C=C/NC=O)cc1`, the GI50 in [1], in assay [2], in assay [19], in [3], in [4] and in assay [5] was > 100 µM (inactive) throughout. For the same compound, the GI50 in assay [6], in assay [7], in assay [8], in [9], in assay [10] and in [11] was > 100 µM (inactive) each time. Moreover, the GI50 in assay [12], in [13], in [14], in assay [15], in assay [17] and in [18] was > 100 µM (inactive) in each case.
Consider `Cc1cn(C2CC(N=[N+]=[N-])C(CO[Si](C)(C)C(C)(C)C)O2)c(=O)[nH]c1=O` (configuration not stated), for which the GI50 in [1] is 16.8 µM (inactive); in [2] it was 15.6 µM (inactive); in [19], 17 µM (inactive); in assay [3], 24.5 µM (inactive); in assay [4] it was 17.3 µM (inactive); in assay [5], 15.6 µM (inactive). Besides, the GI50 was 29.4 µM (inactive) in [6]; 16.9 µM (inactive) in assay [7]; 15.8 µM (inactive) in assay [8]; 16.3 µM (inactive) in assay [9]; 20.8 µM (inactive) in [10]; 18.1 µM (inactive) in assay [11]. Also, the GI50 is 14.2 µM (inactive) in assay [12]; 16.4 µM (inactive) in assay [13]; 10.7 µM (inactive) in [14]; 16.6 µM (inactive) in [15]; 17.5 µM (inactive) in [17]; 23.5 µM (inactive) in assay [18].
With `Nc1c(S(N)(=O)=O)cc(S(N)(=O)=O)cc1S(N)(=O)=O`, the GI50 in assay [1], in [2], in assay [19], in assay [4], in [5] and in assay [6] was > 100 µM (inactive) in each case. Also, the GI50 in [7], in [8], in [9], in [10], in assay [11] and in assay [12] was > 100 µM (inactive) throughout. Besides, the GI50 in assay [13], in assay [14], in assay [15], in assay [16], in [17] and in assay [18] was > 100 µM (inactive) in each case.
On to `CC(NC(=O)C(C)C(=O)Nc1ccc(C(F)(F)F)cc1)C(N)=O` (configuration not stated), for which the GI50 in [1], in assay [2], in [19], in assay [3], in assay [4] and in assay [5] was > 100 µM (inactive) in each case. The GI50 in assay [6], in [8], in [10], in [11], in assay [14] and in assay [15] was > 100 µM (inactive) throughout. In addition, the GI50 in assay [16], in assay [17] and in assay [18] was > 100 µM (inactive) throughout.
